How the values were obtained:
Test in all cases: Bliss excess, mean over the matrix (fraction); higher = more synergy
[1] = test system: ASH-3 (Thyroid Gland Carcinoma)
Method in brief: (§1)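 Cell lines in DMEM/F12 or RPMI with 10% FBS were plated in 1536-well plates, held 24 hours at 37°C, 5% CO2, then given two-drug dose matrices for 72 hours (DMSO typically 0.2%). Viability was read by CellTiter-Glo 2.0 luminescence and scaled as inhibition from 0 (vehicle wells) to 1 (blank wells). Combination Emax is the second-highest inhibition in the matrix; Bliss excess is observed combination effect minus expected EA + EB − EA·EB, EA and EB being single-agent effects.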

[2] = test system: BV-173 (Chronic Myelogenous Leukemia)
Method in brief: as §1

EW-3 (Ewing's Sarcoma) = test system: EW-3 (Ewing's Sarcoma)
Method in brief: as §1

[3] = test system: H-EMC-SS (Chondrosarcoma)
Method in brief: as §1

[4] = test system: HC-1 (Other Blood Carcinomas)
Method in brief: as §1

[5] = test system: HSC-2 (Oral Cavity Carcinoma)
Method in brief: as §1

IMR-5 (Neuroblastoma) = test system: IMR-5 (Neuroblastoma)
Method in brief: as §1

[6] = test system: KYSE-150 (Esophageal Squamous Cell Carcinoma)
Method in brief: as §1

[7] = test system: LOU-NH91 (Squamous Cell Lung Carcinoma)
Method in brief: as §1

[8] = test system: MFE-319 (Endometrial Carcinoma)
Method in brief: as §1

[9] = test system: NCI-H2347 (Lung Adenocarcinoma)
Method in brief: as §1

[10] = test system: PF-382 (T-Lymphoblastic Leukemia)
Method in brief: as §1

RPMI-7951 (Melanoma) = test system: RPMI-7951 (Melanoma)
Method in brief: as §1

Structure (SMILES)	Bliss excess [1]	Bliss excess [2]	Bliss excess (EW-3 (Ewing's Sarcoma))	Bliss excess [3]	Bliss excess [4]	Bliss excess [5]	Bliss excess (IMR-5 (Neuroblastoma))	Bliss excess [6]	Bliss excess [7]	Bliss excess [8]	Bliss excess [9]	Bliss excess [10]	Bliss excess (RPMI-7951 (Melanoma))
CN(C)CCCOc1ccc(-c2ccc3ncc4c(c3c2)n(C2CCOCC2)c(=O)n4C)cn1 [AZD0156] + C=CCn1c(=O)c2cnc(Nc3ccc(N4CCN(C)CC4)cc3)nc2n1-c1cccc(C(C)(C)O)n1 [AZD1775] (first compound max 1 µM, partner max 1 µM)	0.0012	0.0116	0.002	-0.0535	-0.0238	-0.0507	-0.0214	-0.0386	-0.0349	-0.0706	-0.0627	-0.0121	-0.0055
CN(C)CCCOc1ccc(-c2ccc3ncc4c(c3c2)n(C2CCOCC2)c(=O)n4C)cn1 [AZD0156] + CCN(CCO)CCCOc1ccc2c(Nc3cc(CC(=O)Nc4cccc(F)c4)[nH]n3)ncnc2c1 [AZD2811] (first compound max 1 µM, 7x7, partner max 1 µM)	0.0032	-0.0331	-0.0458	-0.0504	-0.008	0.0232	-0.0257	-0.0382	-0.024	-0.0431	-0.0299	-0.0115	-0.0152
CN(C)CCCOc1ccc(-c2ccc3ncc4c(c3c2)n(C2CCOCC2)c(=O)n4C)cn1 [AZD0156] + C[C@@H]1COCCN1C2=NC(=NC(=C2)C3(CC3)[S@](=N)(=O)C)C4=C5C=CNC5=NC=C4 [AZD6738] (first compound max 1 µM, 7x7, partner max 10 µM)	0.0429	0.0179	-0.0721	-0.0707	-0.0214	0.0867	-0.0432	0.0146	-0.0001	-0.0027	-0.049	0.0357	0.0468
C=CCn1c(=O)c2cnc(Nc3ccc(N4CCN(C)CC4)cc3)nc2n1-c1cccc(C(C)(C)O)n1 [AZD1775] + C[C@@H]1COCCN1C2=NC(=NC(=C2)C3(CC3)[S@](=N)(=O)C)C4=C5C=CNC5=NC=C4 [AZD6738] (first compound max 1 µM, partner max 10 µM)	0.0987	0.0199	-0.131	-0.0843	-0.017	0.0675	0.085	-0.029	-0.0111	0.0583	0.0438	-0.0022	0.0368
C=CCn1c(=O)c2cnc(Nc3ccc(N4CCN(C)CC4)cc3)nc2n1-c1cccc(C(C)(C)O)n1 [AZD1775] + O=C(c1cc(Cc2n[nH]c(=O)c3ccccc23)ccc1F)N1CCN(C(=O)C2CC2)CC1 [Olaparib] (first compound max 1 µM, partner max 10 µM)	-0.0054	0.0184	-0.0619	-0.0807	-0.0393	-0.0249	-0.0161	0.0282	-0.0271	-0.0235	-0.0921	-0.0265	-0.0176
CCN(CCO)CCCOc1ccc2c(Nc3cc(CC(=O)Nc4cccc(F)c4)[nH]n3)ncnc2c1 [AZD2811] + C=CCn1c(=O)c2cnc(Nc3ccc(N4CCN(C)CC4)cc3)nc2n1-c1cccc(C(C)(C)O)n1 [AZD1775] (first compound max 1 µM, partner max 1 µM)	-0.016	-0.0222	0.0844	-0.0261	0.0697	0.0771	-0.0064	0.0438	-0.0257	-0.0361	-0.0475	-0.0432	0.0106
CCN(CCO)CCCOc1ccc2c(Nc3cc(CC(=O)Nc4cccc(F)c4)[nH]n3)ncnc2c1 [AZD2811] + C[C@@H]1COCCN1C2=NC(=NC(=C2)C3(CC3)[S@](=N)(=O)C)C4=C5C=CNC5=NC=C4 [AZD6738] (first compound max 1 µM, 7x7, partner max 10 µM)	-0.0367	-0.0537	-0.0152	-0.0723	-0.007	-0.0424	-0.0339	-0.0466	-0.0583	-0.0472	-0.0319	-0.089	-0.0291
CCN(CCO)CCCOc1ccc2c(Nc3cc(CC(=O)Nc4cccc(F)c4)[nH]n3)ncnc2c1 [AZD2811] + O=C(c1cc(Cc2n[nH]c(=O)c3ccccc23)ccc1F)N1CCN(C(=O)C2CC2)CC1 [Olaparib] (first compound max 1 µM, 7x7, partner max 10 µM)	0.0118	-0.0212	-0.103	-0.0353	0.0928	0.0524	-0.0208	0.0291	0.0461	0.0376	-0.0303	-0.0335	0.0463
C[C@@H]1COCCN1c1cc(C2([S@](C)(=N)=O)CC2)nc(-c2ccnc3[nH]ccc23)n1 [AZD6738] + O=C(c1cc(Cc2n[nH]c(=O)c3ccccc23)ccc1F)N1CCN(C(=O)C2CC2)CC1 [Olaparib] (first compound max 10 µM, 7x7, partner max 10 µM)	0.0361	-0.0099	-0.0558	-0.0558	-0.0238	0.0825	0.0432	0.0376	0.0035	-0.0089	-0.0515	-0.0167	0.0207
Cc1cc2ncnn2cc1Nc1ncc2c(n1)n(C1CCOCC1)c(=O)n2C [AZD7648] + C=CCn1c(=O)c2cnc(Nc3ccc(N4CCN(C)CC4)cc3)nc2n1-c1cccc(C(C)(C)O)n1 [AZD1775] (first compound max 10 µM, partner max 1 µM)	-0.0006	0.0237	-0.0894	-0.028	-0.106	0.0566	-0.0146	0.0333	0.012	-0.0055	-0.0279	-0.0029	-0.039
Cc1cc2ncnn2cc1Nc1ncc2c(n1)n(C1CCOCC1)c(=O)n2C [AZD7648] + CCN(CCO)CCCOc1ccc2c(Nc3cc(CC(=O)Nc4cccc(F)c4)[nH]n3)ncnc2c1 [AZD2811] (first compound max 10 µM, 7x7, partner max 1 µM)	0.0309	-0.025	-0.0156	-0.0452	0.0045	0.0999	-0.0188	0.003	0.0693	0.0419	0.0131	0.0137	0.0312
Cc1cc2ncnn2cc1Nc1ncc2c(n1)n(C1CCOCC1)c(=O)n2C [AZD7648] + CN(C)CCCOc1ccc(-c2ccc3ncc4c(c3c2)n(C2CCOCC2)c(=O)n4C)cn1 [AZD0156] (first compound max 10 µM, 7x7, partner max 1 µM)	0.0116	0.0151	-0.0281	-0.0396	-0.0398	0.0203	0.009	0.0054	0.0454	0.0572	0.0159	0.0685	-0.0164
Cc1cc2ncnn2cc1Nc1ncc2c(n1)n(C1CCOCC1)c(=O)n2C [AZD7648] + C[C@@H]1COCCN1C2=NC(=NC(=C2)C3(CC3)[S@](=N)(=O)C)C4=C5C=CNC5=NC=C4 [AZD6738] (first compound max 10 µM, 7x7, partner max 10 µM)	0.0459	-0.0194	-0.0607	0.0095	-0.131	0.0627	0.0088	-0.0061	0.0337	0.0546	-0.0451	0.0263	0.0028
Cc1cc2ncnn2cc1Nc1ncc2c(n1)n(C1CCOCC1)c(=O)n2C [AZD7648] + O=C(c1cc(Cc2n[nH]c(=O)c3ccccc23)ccc1F)N1CCN(C(=O)C2CC2)CC1 [Olaparib] (first compound max 10 µM, 7x7, partner max 10 µM)	0.0057	-0.0062	-0.0743	-0.0759	-0.0389	-0.0277	0.0328	-0.0351	-0.0301	-0.0499	-0.0144	0.0443	0.0044
COc1cccc2c1C(=O)c1c(O)c3c(c(O)c1C2=O)C[C@@](O)(C(=O)CO)C[C@@H]3O[C@H]1C[C@H](N)[C@H](O)[C@H](C)O1 [Doxorubicin] + Cc1cc2ncnn2cc1Nc1ncc2c(n1)n(C1CCOCC1)c(=O)n2C [AZD7648] (first compound max 1 µM, 7x7, partner max 10 µM)	0.0829	0.0953	0.005	-0.0179	0.0693	0.0891	0.194	0.0648	0.0236	0.0152	-0.0486	0.109	0.0709
CS(=O)(=O)CCNCc1ccc(-c2ccc3ncnc(Nc4ccc(OCc5cccc(F)c5)c(Cl)c4)c3c2)o1 [Lapatinib] + NC1(c2ccc(-c3nc4ccn5c(=O)[nH]nc5c4cc3-c3ccccc3)cc2)CCC1 [MK-2206] (first compound max 10 µM, 7x7, partner max 10 µM)	0.0178	–	0.0455	-0.0597	–	0.0806	–	0.0159	–	-0.0155	-0.0315	-0.0144	–
COc1cccc(OCCCN)c1-c1cc(Nc2cnc(C#N)cn2)n[nH]1 [Prexasertib] + C=CCn1c(=O)c2cnc(Nc3ccc(N4CCN(C)CC4)cc3)nc2n1-c1cccc(C(C)(C)O)n1 [AZD1775] (first compound max 1 µM, partner max 1 µM)	0.235	-0.0251	0.0286	0.0712	0.0149	0.178	0.12	0.149	0.0332	-0.0049	-0.0548	-0.0038	0.0723
COc1cccc(OCCCN)c1-c1cc(Nc2cnc(C#N)cn2)n[nH]1 [Prexasertib] + CN(C)CCCOc1ccc(-c2ccc3ncc4c(c3c2)n(C2CCOCC2)c(=O)n4C)cn1 [AZD0156] (first compound max 1 µM, 7x7, partner max 1 µM)	0.0014	-0.0676	-0.0437	-0.0264	-0.0134	-0.0532	-0.015	-0.0386	-0.0374	-0.0129	-0.0178	-0.0448	-0.0165
COc1cccc(OCCCN)c1-c1cc(Nc2cnc(C#N)cn2)n[nH]1 [Prexasertib] + C[C@@H]1COCCN1C2=NC(=NC(=C2)C3(CC3)[S@](=N)(=O)C)C4=C5C=CNC5=NC=C4 [AZD6738] (first compound max 1 µM, 7x7, partner max 10 µM)	0.0902	-0.0473	-0.0275	-0.0013	-0.0139	0.0649	-0.01	-0.0265	0.0295	-0.0238	-0.081	-0.0558	-0.0372
COc1cccc(OCCCN)c1-c1cc(Nc2cnc(C#N)cn2)n[nH]1 [Prexasertib] + Cc1cc2ncnn2cc1Nc1ncc2c(n1)n(C1CCOCC1)c(=O)n2C [AZD7648] (first compound max 1 µM, 7x7, partner max 10 µM)	0.0598	-0.0218	0.0201	-0.021	0.0069	-0.0403	-0.0065	-0.0312	0.007	-0.0064	-0.0552	-0.0131	0.0049

— the supplement of paper PMC11061612
